From EP1056700B1, “MEDICINAL USES OF PHENYLALKANOLS AND DERIVATES” (ZingoTX Pty Ltd, priority 1997, dated 1999)
Entries after “also recorded” stand apart in the source; their conditions may differ.

How the values were obtained:
[1] = target: T1, SR Ca^2+-ATPase (Canis lupus familiaris, UniProt O46674); experiment: Sarcoplasmic reticulum Ca^2+-ATPase assay; assay type: biochemical, dog; conditions: for SR Ca^2+-ATPase Activity: 0 µM = 100, dog cardiac SR; for SR Ca^2+-ATPase ↑ increase or stimulation: @ 25 µM; for IC50: read-out: SR Ca^2+-ATPase IC50 = conc. for 50% inhibition
T1 construct: Effect of gingerols and their derivatives on the Ca^2+-ATPase activity of dog cardiac SR; from tissue; host or cells: dog heart (cardiac sarcoplasmic reticulum)
Outline: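 Dog cardiac SR Ca^2+-ATPase activity was measured with 20 mM ATP solution over 30 min at 37°C. Released inorganic phosphate was developed colorimetrically, read at 655 nm and quantified against a Pi standard curve, with controls lacking ATP or calcium. Compounds from 10 mM DMSO stocks were tested in duplicate at ≤2.5% final DMSO.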

[2] = tested on: guinea pig atria; experiment: Organ bath assay on isolated guinea pig atria (rate and force of contraction)
Outline: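 Test substances (DMSO, final 2.5 %) applied up to a maximum of 50 µM. Preparation: isolated atria of young (3-4 wk) male guinea pigs under 1 g resting tension in carbogen-oxygenated Krebs-Henseleit, baseline stable 20 min. Read-outs: beating rate and contractile force.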

[3] = tested on: right atrium-vagus rat; experiment: Cardiovascular and neuro-effector junction activities: right atrium-vagus, rat; conditions: result in words with concentration
Text: (§1) The cardiotonic action of 1-(4-hydroxy-3-methoxyphenyl)dodecan-3-ol [3.93] was confirmed from independent studies, carried out at our request as part of our agreement with Johnson & Johnson Research Ltd (J&J), by Prof. James Angus from the University of Melbourne. […] A tachycardial effect of the substance on guinea pig atria was, however, observed at significant rate, 50-60% of isoprenaline Emax and the response was not α- or β-adrenoceptor mediated. […] Cardiovascular and neuro-effector junction activities of gingerol analogues

[4] = tested on: right atrium rat; experiment: Cardiovascular and neuro-effector junction activities: right atrium, rat; conditions: result in words with concentration
Text: as §1

[5] = tested on: left atrium rat; experiment: Cardiovascular and neuro-effector junction activities: left atrium, rat; conditions: result in words with concentration
Text: as §1

[6] = tested on: DRG neuronal cells; experiment: Peak [Ca^2+]i transients in cultured dorsal root ganglion neurons (Fura-2); assay type: cell-based, rat; conditions: for Number of capsaicin-sensitive cells responding / Peak [Ca^2+]i (Average ±SD): 2 mM Ca^2+
Outline: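 Neonatal or adult Sprague-Dawley rat DRG neurons, Percoll-enriched and NGF-cultured, were loaded with 5 µM Fura-2 AM and imaged by 340/380 nm ratio at 20–23 °C in buffer with 2 mM Ca²⁺, pH 7.4. Compounds at 10 µM were perfused for 1 min, then washed out for 4 min. Viability was confirmed with 10 µM capsaicin and 50 mM KCl.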

[7] = tested on: rat mesenteric artery; experiment: Vasodilation on rat mesenteric small arteries
Text: Small arteries (200-300 µm in diameter) isolated from rat mesentery were precontracted with endothelin prior to addition of the test substances and tested for relaxation.

[8] = tested on: Platelet rich plasma; experiment: Platelet aggregation: [^3H]-serotonin release from platelet rich plasma, arachidonic acid initiated; assay type: cell-based; conditions: Homo sapiens, activation by EC50 concentration of arachidonic acid
Experimental: Blood was collected from healthy volunteers who had taken no medication in the previous two weeks. The anticoagulant used was 3.8 % trisodium citrate. Platelet rich plasma was prepared and incubated with [^3H]-serotonin. This was followed by addition of gingerol analogues. Platelet activation was initiated using the EC50 concentration for arachidonic acid. The percentage of [^3H]-serotonin release was measured using a liquid scintillation counter. Then, dose-response curves were established and IC50 values were obtained.

[9] = result in words, guinea pig atria

T1 sequence (O46674 whole entry): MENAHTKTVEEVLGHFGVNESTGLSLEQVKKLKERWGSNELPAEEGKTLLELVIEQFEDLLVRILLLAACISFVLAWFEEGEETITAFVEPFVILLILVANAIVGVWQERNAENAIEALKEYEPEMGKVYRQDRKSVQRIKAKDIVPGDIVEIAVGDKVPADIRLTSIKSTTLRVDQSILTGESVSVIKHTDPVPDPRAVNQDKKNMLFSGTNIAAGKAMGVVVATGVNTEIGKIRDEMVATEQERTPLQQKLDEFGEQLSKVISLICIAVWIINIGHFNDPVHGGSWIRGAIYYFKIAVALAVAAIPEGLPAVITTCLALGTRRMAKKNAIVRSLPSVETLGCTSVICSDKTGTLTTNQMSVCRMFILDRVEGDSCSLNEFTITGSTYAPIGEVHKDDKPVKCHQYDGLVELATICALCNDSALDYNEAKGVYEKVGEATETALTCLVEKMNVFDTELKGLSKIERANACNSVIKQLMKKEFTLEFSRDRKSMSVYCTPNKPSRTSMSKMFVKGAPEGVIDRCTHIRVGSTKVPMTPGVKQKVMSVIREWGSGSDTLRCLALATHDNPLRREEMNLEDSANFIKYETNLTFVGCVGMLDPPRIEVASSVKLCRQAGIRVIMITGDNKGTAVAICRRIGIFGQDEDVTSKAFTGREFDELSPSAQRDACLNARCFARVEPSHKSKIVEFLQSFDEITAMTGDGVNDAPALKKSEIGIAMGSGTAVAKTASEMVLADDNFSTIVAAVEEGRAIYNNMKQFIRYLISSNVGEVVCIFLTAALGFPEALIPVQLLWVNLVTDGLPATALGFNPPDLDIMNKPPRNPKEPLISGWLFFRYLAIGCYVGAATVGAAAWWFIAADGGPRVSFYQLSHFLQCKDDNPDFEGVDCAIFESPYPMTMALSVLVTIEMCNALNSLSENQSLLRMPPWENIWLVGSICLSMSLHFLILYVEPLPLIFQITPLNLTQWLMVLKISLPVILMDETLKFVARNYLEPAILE

CCCCCCCC(O)CC(=O)c1ccc(O)c(OC)c1 (centres unmarked) [3-hydroxy-1-(4-hydroxy-3-methoxyphenyl)decan-1-one]
SR Ca^2+-ATPase Activity ([1]; 1 µM): 104 | SR Ca^2+-ATPase Activity ([1]; 5 µM): 152 | SR Ca^2+-ATPase Activity ([1]; 10 µM): 174 | SR Ca^2+-ATPase Activity ([1]; 25 µM): 195 | SR Ca^2+-ATPase Activity ([1]; 50 µM): 180 | SR Ca^2+-ATPase Activity ([1]; 100 µM): 222 | SR Ca^2+-ATPase ↑ increase or stimulation ([1]; listed as 3-hydroxy-1-(4-hydroxy-3-methoxyphenyl) decan-1-one (3.92)): ↑95% @ 25 | SR Ca^2+-ATPase ↑ increase or stimulation ([1]; listed as 3.92): 95% | stimulatory activity towards dog heart SR Ca^2+-ATPase ([1]; at 3 µM): 200% | IC50 [1]: ~50 µM | FORCE OF CONTRACT^n ↓ decrease ([2]; @ 10 (µM), guinea pig atria): ↓11% @ 10 | HEART RATE ↓ decrease ([2]; @ 10 (µM), guinea pig atria): ↓5% @ 10 | FORCE OF CONTRACT^n ↓ decrease ([2]; @ 30 (µM), guinea pig atria): ↓13% @ 30 | increase on driven guinea pig left atria ([2]; at 10 µM): 50% | FORCE OF CONTRACT^n [2, 9]: negative inotropic activity | HEART RATE [2, 9]: negative chronotropic activity | right atrium-vagus rat [3]: some enhanced slowing 10^-6 - 10^-5 M | right atrium rat [4]: no change basal rate 10^-7 - 10^-5 M | left atrium rat [5]: no change 10^-7 - 3x10^-5 M (sharp fall 10^-4 M) | Number of capsaicin-sensitive cells responding ([6]; 10 µM applied for 1 min): 0 out of 5 | Peak [Ca^2+]i (Average ±SD) ([6]; 10 µM applied for 1 min): 0 nM

CCCCCCCCCC(O)CCc1ccc(O)c(OC)c1 (centres unmarked) [1-(4-hydroxy-3-methoxyphenyl)dodecan-3-ol]
SR Ca^2+-ATPase Activity ([1]; 5 µM): 102 | SR Ca^2+-ATPase Activity ([1]; 10 µM): 108 | SR Ca^2+-ATPase Activity ([1]; 25 µM): 140 | SR Ca^2+-ATPase Activity ([1]; 50 µM): 101 | SR Ca^2+-ATPase Activity ([1]; 100 µM): 98 | SR Ca^2+-ATPase Activity ([1]; 200 µM): 16 | SR Ca^2+-ATPase ↑ increase or stimulation [1]: ↑40% @ 25 | IC50 [1]: 50 to 100 µM | FORCE OF CONTRACT^n ↑ increase ([2]; @ 10 (µM), guinea pig atria): ↑180% @ 10 | HEART RATE ↑ increase ([2]; @ 10 (µM), guinea pig atria): ↑50% @ 10 | increase on driven guinea pig left atria ([2]; at 1 µM, followed by arrhythmia): 50% | potency of one enantiomer versus the other in increasing the force of contraction ([2]; guinea pig atria): 100 fold | arrhythmia ([2]; guinea pig atria, after addition of a dose): followed by arrhythmia | right atrium-vagus rat [3]: dramatic enhancement n=1 10^-6 - 10^-5 M | right atrium rat [4]: tachycardi a 3x10^-7 - 3x10^-6 M (with propranolo 1 present) | left atrium rat [5]: no change in force 10^-7 - 10^-5 M (n=2) | potency (EC50) for relaxation of the mesenteric artery versus inotropic effect in guinea pig atrium [7]: 100 fold | EC50 ([7]; Rattus norvegicus, relaxation of small arteries (200-300 µm) precontracted with endothelin): 0.1 µM | relaxation of rat mesenteric artery ([7]; result in words): very potent; also recorded: both enantiomers showed similar potency | IC50 [8]: 58 ± 1.9 µM | Number of capsaicin-sensitive cells responding ([6]; high responses, 10 µM): 5 | Peak [Ca^2+]i (Average ±SD) ([6]; high responses, 10 µM): 661 ± 376 (high responses) nM | evoked [Ca^2+]i transients ([6]; in Ca^2+-free medium or on application of ruthenium red (1 µM)): abolished or greatly diminished | Number of capsaicin-sensitive cells responding ([6]; low responses, 10 µM): 10 | Peak [Ca^2+]i (Average ±SD) ([6]; low responses, 10 µM): 187 ± 66 (low responses) nM | [Ca^2+]i in capsaicin-sensitive DRG cells ([6]; result in words): increased intracellular calcium
